Patent publication US12214015B2, “Use of c-type natriuretic peptide variants to treat osteoarthritis” (priority 2015, dated 2025)
pKd: −log10 of the molar value. Where no end group is shown, it is not given here.

What was measured:
NPR-B [1] = biological target: T1, NPR-B (Homo sapiens, UniProt P20594); conditions: cited from earlier work
T1 sequence (P20594 23-1047): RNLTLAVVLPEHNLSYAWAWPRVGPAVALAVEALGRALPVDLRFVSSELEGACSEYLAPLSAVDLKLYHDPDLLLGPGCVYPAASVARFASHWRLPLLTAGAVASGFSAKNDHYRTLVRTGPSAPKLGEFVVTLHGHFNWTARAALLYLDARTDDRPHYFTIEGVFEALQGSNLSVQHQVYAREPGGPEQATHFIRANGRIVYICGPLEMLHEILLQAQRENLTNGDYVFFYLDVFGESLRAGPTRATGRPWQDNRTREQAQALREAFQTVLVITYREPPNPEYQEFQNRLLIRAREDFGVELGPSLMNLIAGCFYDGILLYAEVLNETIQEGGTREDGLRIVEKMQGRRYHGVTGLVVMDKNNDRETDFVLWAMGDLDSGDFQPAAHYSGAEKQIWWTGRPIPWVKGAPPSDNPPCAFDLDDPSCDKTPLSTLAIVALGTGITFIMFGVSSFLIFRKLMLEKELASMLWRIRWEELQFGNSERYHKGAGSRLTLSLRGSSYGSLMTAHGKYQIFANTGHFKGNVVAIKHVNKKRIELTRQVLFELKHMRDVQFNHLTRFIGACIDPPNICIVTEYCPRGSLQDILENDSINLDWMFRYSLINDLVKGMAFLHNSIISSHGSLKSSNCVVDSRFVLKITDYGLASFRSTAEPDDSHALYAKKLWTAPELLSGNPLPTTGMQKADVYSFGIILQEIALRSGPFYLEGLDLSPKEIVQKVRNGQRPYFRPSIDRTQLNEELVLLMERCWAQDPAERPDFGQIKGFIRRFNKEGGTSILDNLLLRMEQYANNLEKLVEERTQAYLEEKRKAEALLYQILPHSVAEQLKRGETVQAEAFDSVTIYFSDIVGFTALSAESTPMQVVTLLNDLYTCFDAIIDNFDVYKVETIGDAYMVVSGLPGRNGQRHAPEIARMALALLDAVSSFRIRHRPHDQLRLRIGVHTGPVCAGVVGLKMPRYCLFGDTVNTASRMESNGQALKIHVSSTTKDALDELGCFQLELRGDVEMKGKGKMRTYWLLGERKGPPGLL

[2] = tested on: medial meniscal tear-induced osteoarthritis; test: Rat medial meniscal tear osteoarthritis model, knee histopathology (Example 2, IA or SC); type: in vivo
[3] = tested on: medial meniscal tear-induced osteoarthritis; test: Gait analysis in rat meniscal tear osteoarthritis model (Example 1); type: in vivo
Excerpt: (§1) This rat model was used to determine the effect of CNP variants on slowing or repairing cartilage damage in osteoarthritis, where the CNP is delivered in response to joint injury or trauma. In this model a tear was introduced into the meniscus to provoke joint injury which results in cartilage degeneration and osteoarthritis (Janusz et al., Osteoarthritis Cartilage, 10:785-791, 2002). Male Lewis rats received a unilateral medial meniscectomy on Day 0; administration of control vehicle or the CNP variant Gly-CNP-37 began on Day 7; and the animals were euthanized on Day 29 for histopathological analysis of the affected joints. […] Therapeutic efficacy was evaluated by gait analysis and histopathological examination of chondrocyte death/cartilage degeneration in the knee.
Gait analysis was performed by applying ink to the ventral surface of the foot and documenting weight bearing during movement (footprints) across paper. Rear feet of rats were placed in ink and then rats were placed on paper and allowed to walk the full length. Gait was scored visually using the criteria in Table 5 (descriptions refer to diseased/affected leg).

[4] = tested on: medial meniscal tear-induced osteoarthritis; test: Rat medial meniscal tear osteoarthritis model, knee histopathology (Example 1, IA dosing from Day 7); type: in vivo; conditions: for cartilage degeneration in the tibia: 3x/week for 3 weeks from Day 7, vs control rats
Experimental: A unilateral medial meniscal tear in 275-300 gram rats will result in rapidly progressive cartilage degeneration—characterized by chondrocyte and proteoglycan loss, fibrillation, osteophyte formation, and chondrocyte cloning. This model is performed by transection of the medial collateral ligament just below its attachment to the meniscus so that when the joint space opens, the meniscus is reflected toward the femur. The meniscus is cut at its narrowest point (away from the ossicles) taking care not to damage the tibial surface and making sure that the resulting transection produces separate, freely movable anterior and posterior meniscus halves.
Progressive cartilage degenerative changes occur and by 3-6 weeks post-surgery, tibial cartilage degeneration may be focally severe on the outer ⅓ of the tibia with degenerative changes of lesser severity in the middle and inner ⅓. Osteophytes are ultimately quite large (medial tibia) and progressively increase in size. The model is progressive and results in total cartilage loss (to eburnated bone) in […] in virtually all rats, with lesions that are reasonably consistent. […] Due to the rapid progression of cartilage degeneration, protective effects are not always apparent in the outer ⅓ of the tibial cartilage, although zonal analysis may reveal effects of treatment in the middle and inner ⅓. Substantial subchondral and epiphyseal bone changes occur in the medial tibia subjacent to the areas of greatest lesion severity. These range in magnitude and type from increased basophilia of the calcified cartilage layer with small fractures into subchondral bone to overt collapse of articular cartilage into areas of bone resorption in the epiphysis with surrounding sclerosis of bone. Therefore, this model offers the opportunity to evaluate not only chondroprotective effects of agents but also bone preserving activities. The model is of relatively short duration and animals are very consistent in their response to the surgery.
as §1
In particular, surgery animals were anesthetized with isoflurane and the right knee and lower leg area were prepared for surgery. For the meniscal tear, a skin incision was made over the medial aspect of the knee and the medial collateral ligament was transected after being exposed by blunt dissection. The medial meniscus was cut through the full thickness to simulate a complete tear and the wound closed. Ninety minutes (90 min) post-surgery, animals were treated with a dose of Acetaminophen (100 mg/kg, PO) in 1% CMC (2 mL/kg, 50 mg/mL). A follow-on dose was given 24 hours post-surgery (as needed).
For histopathological analysis the operated joints were harvested from the euthanized rats. Following 4-6 days in 5% formic acid decalcifier, the operated joints are cut into two approximately equal halves in the frontal plane and embedded in paraffin. Sections were cut from each operated right knee at approximately 160 μm steps and stained with toluidine blue. […]

[5] = clearance by NEP and NPR-C; cited from earlier work
NEP = NEP (Homo sapiens, UniProt P08473); conditions: NEP digestion for 2.5 minutes in vitro; Cys6-Phe7 and Gly8-Leu9 slightly most labile
NEP, sequence (P08473 whole entry): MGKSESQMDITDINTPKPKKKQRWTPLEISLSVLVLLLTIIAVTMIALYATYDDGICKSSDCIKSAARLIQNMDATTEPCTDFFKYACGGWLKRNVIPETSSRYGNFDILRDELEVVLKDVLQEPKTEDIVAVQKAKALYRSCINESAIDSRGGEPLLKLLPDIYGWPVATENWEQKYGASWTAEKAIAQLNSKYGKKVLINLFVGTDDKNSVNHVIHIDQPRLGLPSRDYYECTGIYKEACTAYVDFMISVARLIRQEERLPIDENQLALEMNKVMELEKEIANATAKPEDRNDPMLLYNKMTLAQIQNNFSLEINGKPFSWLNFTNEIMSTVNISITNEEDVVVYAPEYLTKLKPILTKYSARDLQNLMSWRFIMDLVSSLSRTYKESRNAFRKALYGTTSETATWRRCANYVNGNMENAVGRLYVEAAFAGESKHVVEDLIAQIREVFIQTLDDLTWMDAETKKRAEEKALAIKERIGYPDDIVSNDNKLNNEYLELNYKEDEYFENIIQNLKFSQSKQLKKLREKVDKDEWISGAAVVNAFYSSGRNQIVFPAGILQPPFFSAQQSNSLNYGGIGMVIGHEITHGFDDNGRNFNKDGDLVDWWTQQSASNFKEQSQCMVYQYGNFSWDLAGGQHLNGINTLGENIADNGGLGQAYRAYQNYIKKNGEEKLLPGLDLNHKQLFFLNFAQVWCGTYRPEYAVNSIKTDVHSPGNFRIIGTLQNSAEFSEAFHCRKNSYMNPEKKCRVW

NPR-C = NPR-C (Homo sapiens, UniProt P17342); conditions: read-out: affinity to NPR-C; cited from earlier work
NPR-C, sequence (P17342 27-541, species assumed): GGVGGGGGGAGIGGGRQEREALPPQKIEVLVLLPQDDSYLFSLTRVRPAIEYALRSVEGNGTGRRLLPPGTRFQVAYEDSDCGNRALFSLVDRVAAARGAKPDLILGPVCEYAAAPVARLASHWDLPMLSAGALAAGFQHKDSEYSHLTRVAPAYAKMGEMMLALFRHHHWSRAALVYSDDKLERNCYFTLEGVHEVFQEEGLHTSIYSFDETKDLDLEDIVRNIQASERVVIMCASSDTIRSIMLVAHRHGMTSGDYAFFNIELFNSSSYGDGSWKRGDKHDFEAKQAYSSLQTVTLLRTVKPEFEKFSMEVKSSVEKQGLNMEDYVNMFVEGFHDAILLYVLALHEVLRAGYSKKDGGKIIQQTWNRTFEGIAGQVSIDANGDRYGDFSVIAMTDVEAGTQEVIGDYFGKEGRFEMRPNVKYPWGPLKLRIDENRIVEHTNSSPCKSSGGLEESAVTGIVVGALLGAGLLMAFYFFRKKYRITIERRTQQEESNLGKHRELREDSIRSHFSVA

NPR-B [6] = biological target: T1, NPR-B; conditions: read-out: affinity to NPR-B; cited from earlier work

G19R mutation in CNP22: CNP22 with a G19R substitution (GLSKGCFGLKLDRIGSMSRLGC; ends and bridges not checked; cysteine pairing not given here; UniProt P23582 105-126, looked up, variant G19R)
NPR-B signaling activity (NPR-B [1]): does not result in a significant loss

GQEHPNARKYKGANKKGLSKGCFGLKLDRIGSMSGLGC (ends and bridges not checked; cysteine pairing not given here) [Gly-CNP-37]
Total Joint Score without Femur ([2]; 105 μg IA): significant reduction | effects on histopathology lesions of medial meniscal tear-induced osteoarthritis ([2]; IA, Pro-Gly-CNP-37 35.5 and 105 μg, Gly-CNP-37 105 μg): significant beneficial effects | gait score Area Under the Curve (AUC) ([3]; higher dose IA): gait score being lower for both treated populations as compared to the untreated controls | mobility and gait (gait score) ([3]; higher or lower dose IA, approximately day 15 to day 28): improvement in mobility and gait | gait score Area Under the Curve (AUC) ([3]; lower dose IA): decreased gait score to a greater extent than the higher CNP dose | medial growth plate thickness ([4]; 35.5 μg IA): a reduction in medial thickness, but not a significant reduction | Total Joint Score without Femur ([4]; 35.5 μg/dose IA): improved Total Joint Score without Femur, albeit to a lesser extent as compared to the higher dose | damage to the calcified cartilage and subchondral bone ([4]; 35.5 μg/dose IA): reduced damage to the calcified cartilage and subchondral bone, but to a lesser extent than the higher dose | cartilage degeneration in the tibia ([4]; 35.5 μg/dose IA): significant reduction | medial growth plate thickness ([4]; 110 μg IA): significantly reduced | Total Joint Score without Femur ([4]; 110 μg/dose IA): significantly reduced | cartilage degeneration in the tibia ([4]; 110 μg/dose IA): significant reduction | reduction of tibial osteophyte measurement ([4]; 110 μg/dose IA, p<0.05): approximately 24% | reduction of tibial osteophyte score ([4]; 110 μg/dose IA, p<0.05): approximately 34% | damage to the calcified cartilage and subchondral bone, score ([4]; 110 μg/dose IA, vehicle approximately 2.4): ~1.3 | improvement in substantial tibial cartilage degeneration (width) ([4]; Gly-CNP-37 treated animals (IA)): greater than 50% | depth ratio (lesion depth / total depth), medial tibia ([4]; Gly-CNP-37 treated groups (IA) vs vehicle): improved | Total Joint Score with Femur ([4]; both doses IA): decreases total joint score at both doses, but not to a significant level | medial tibial subchondral/epiphyseal trabecular bone thickening/sclerosis ([4]; both doses IA vs vehicle, not significant): observable decrease | growth plate thickness, medial minus lateral difference ([4]; higher dose IA): significantly reduced | collagen damage across the medial tibial plateau ([4]; lower and higher doses IA vs untreated controls): fewer areas with severe, marked and moderate degeneration | growth plate thickness, medial minus lateral difference ([4]; lower dose IA): reduced thickness of the growth plate, but not to the same extent as the higher dose | width of the cartilage affected by any degeneration ([4]; treated groups (IA) vs vehicle): improved

CC[C@H](C)[C@@H]1NC(=O)[C@H](CCCNC(=N)N)NC(=O)[C@H](CC(=O)O)NC(=O)[C@H](CC(C)C)NC(=O)[C@H](CCCCN)NC(=O)[C@H](CC(C)C)NC(=O)CNC(=O)[C@H](Cc2ccccc2)NC(=O)[C@@H](NC(=O)CNC(=O)[C@H](CCCCN)NC(=O)[C@H](CO)NC(=O)[C@H](CC(C)C)NC(=O)CN)CSSC[C@@H](C(=O)O)NC(=O)CNC(=O)[C@H](CC(C)C)NC(=O)CNC(=O)[C@H](CO)NC(=O)[C@H](CCSC)NC(=O)[C@H](CO)NC(=O)CNC1=O [CNP-22]
half-life [5]: ~2.6 min | hydrolysis of NEP cleavage sites (NEP): all possible sites were unexpectedly hydrolyzed | pKd (NPR-C): 9.85 to 10.96 | pKd (NPR-B [6]): 10.52 to 11.15
